In the test the test system is C. elegans. Kind of test: microbe, parasite or virus in culture. The settings on record: Caenorhabditis elegans.
Setting [1] is: 0 h, read-out: Percentage of motility inhibition 0 h, Table S2, C. elegans SS assay, 110 μM, 0 h, averages of 4 data points.
The mark [2] stands for this setting: 24 h, read-out: Percentage of motility inhibition 24 h, Table S2, C. elegans SS assay, 110 μM, 24 h, averages of 4 data points.
Setting [3] is: 0 h, read-out: Percentage of motility inhibition 0 h.
[4] abbreviates: 24 h, read-out: Percentage of motility inhibition 24 h.

Read-outs that look alike come from different tables or passages of the source.

Our source for the inhibition values is paper PMC11855827, “High-Throughput Screening of Five Compound Libraries for Anthelmintic Activity and Toxicity Leads to the Discovery of Two Flavonoid Compounds” (International Journal of Molecular Sciences, 2025).

The inhibition is the change of the read-out against control, counted positive when it falls. With `CC(C)C12CCC(C)(CC1)O2` [1,4-Cineole], the inhibition at 110 µM by setting is: under setting [1], 21%; under setting [2], 35%.

Regarding `CCCCCCCCCCCCCCCCO` [1-Hexadecanol], the inhibition at 110 µM by setting is: under setting [1], 17%; under setting [2], 0%.

Consider `OC[C@H]1NC[C@H](O)[C@@H](O)[C@@H]1O` [1‐Deoxynojirimycin], for which the inhibition at 110 µM worked out at 0% under setting [1] and 1% under setting [2].

For the molecule `CCCCCCCCCCCCCCCCCCCCCCO` [1‐Docosanol], the inhibition at 110 µM is, setting by setting: under setting [1], 33%; under setting [2], 25%.

Consider `Cc1cncc(C)n1` [2,6‐Dimethylpyrazine], for which the inhibition at 110 µM was determined as 0% under setting [1] and 0% under setting [2].

`CC(=O)c1ccc[nH]1` [2‐Acetylpyrrole]: the inhibition at 110 µM under setting [1] stood at 26% and the inhibition at 110 µM under setting [2] worked out at 18%.

With `O=c1[nH]c2ccccc2o1` [2‐Benzoxazolinone], the inhibition at 110 µM by setting is: under setting [1], 24%; under setting [2], 6%.

Turning to `c1ccc2c(Cc3c[nH]c4ccccc34)c[nH]c2c1` [3,3'‐Diindolylmethane], the inhibition at 110 µM under setting [1] stood at 0% and the inhibition at 110 µM under setting [2] was 7%.

In the case of `Cc1ccc2[nH]c3ccccc3c2c1` [3‐Methylcarbazole], the inhibition at 110 µM was determined as 0% under setting [1] and 29% under setting [2].

As to `COc1c(-c2ccc(O)c(O)c2)oc2cc(O)cc(O)c2c1=O` [3‐O‐Methylquercetin], the inhibition at 110 µM under setting [1] is 3% and the inhibition at 110 µM under setting [2] is 16%.

`O=C(/C=C/c1ccccc1)c1ccc(O)cc1` [4'‐Hydroxychalcone]: the inhibition at 110 µM is 39% under setting [1] and 15% under setting [2].

In the case of `COc1ccc(C(=O)/C=C/c2ccccc2)cc1` [4'‐Methoxychalcone], the inhibition at 110 µM under setting [3] came to 0% and the inhibition at 110 µM under setting [4] is 5%.

Turning to `COc1c(OC)c2nccc3c4ccccc4n(c1=O)c23` [4,5‐Dimethoxycanthin‐6‐one], the inhibition at 110 µM reads like this: under setting [1], 0%; under setting [2], 22%.

For the molecule `Cc1cc(=O)oc2cc(O)ccc12` [4-Methylumbelliferone], the inhibition at 110 µM is, setting by setting: under setting [1], 4%; under setting [2], 3%.

For the molecule `O=C(/C=C/c1ccc(O)cc1)c1ccccc1` [4‐Hydroxychalcone], the inhibition at 110 µM is, setting by setting: under setting [1], 0%; under setting [2], 1%.

`N[C@@H](Cc1c[nH]c2ccc(O)cc12)C(=O)O` [5-Hydroxytryptophan]: the inhibition at 110 µM under setting [1] was determined as 28% and the inhibition at 110 µM under setting [2] amounted to 12%.

Turning to `O=c1cc(-c2ccccc2)oc2cccc(O)c12` [5‐Hydroxyflavone], the inhibition at 110 µM reads like this: under setting [1], 12%; under setting [2], 21%.

As for `Oc1ccc2[nH]ccc2c1` [5‐Hydroxyindole], the inhibition at 110 µM is 28% under setting [1] and 9% under setting [2].

As for `O=c1cc(-c2ccccc2)oc2ccc(O)cc12` [6‐Hydroxyflavone], the inhibition at 110 µM by setting is: under setting [1], 14%; under setting [2], 2%.

For `O=c1cc(-c2ccccc2)oc2cc(O)ccc12` [7‐Hydroxyflavone], the inhibition at 110 µM by setting is: under setting [1], 1%; under setting [2], 0%.

Regarding `CC(C)=CCc1c(O)c(CC=C(C)C)c2oc3c(O)cccc3c(=O)c2c1O` [8‐Deoxygartanin], the inhibition at 110 µM amounted to 14% under setting [1] and 0% under setting [2].

In the case of `Nc1nc2c(nc(O)n2[C@@H]2O[C@H](CO)[C@@H](O)[C@H]2O)c(=O)[nH]1` [8‐Hydroxyguanosine], the inhibition at 110 µM is, setting by setting: under setting [1], 14%; under setting [2], 4%.

For the molecule `CC[C@@]1(O)C(=O)OCc2c1cc1n(c2=O)Cc2cc3c(N)cccc3nc2-1` [9‐Aminocamptothecin], the inhibition at 110 µM under setting [1] was 0% and the inhibition at 110 µM under setting [2] worked out at 2%.

With `C=CCCCCCCCCC(=O)O` [10‐Undecenoic acid], the inhibition at 110 µM is, setting by setting: under setting [1], 60%; under setting [2], 67%.

`C=C1CC[C@@H]2[C@](C)(CO)[C@H](O)CC[C@@]2(C)[C@@H]1CCC1=CCOC1=O` [14-Deoxyandrographolide]: the inhibition at 110 µM runs as follows: under setting [1], 1%; under setting [2], 28%.

Consider `CC(C)=CCC[C@@H](C)CC=O` [(R)-(+)-Citronellal], for which the inhibition at 110 µM amounted to 0% under setting [1] and 8% under setting [2].

In the case of `CC[C@@]1(O)C(=O)OCc2c1cc1n(c2=O)Cc2cc3cc(O)ccc3nc2-1` [(S)‐10‐Hydroxycamptothecin], the inhibition at 110 µM was found to be 0% under setting [1] and 0% under setting [2].

For the molecule `Oc1cc(O)c2c(c1)O[C@@H](c1ccc(O)c(O)c1)[C@H](O)C2` [(‐)‐Catechin], the inhibition at 110 µM is, setting by setting: under setting [1], 8%; under setting [2], 9%.

Take `Oc1cc(O)c2c(c1)O[C@H](c1ccc(O)c(O)c1)[C@H](O)C2` [(‐)‐Epicatechin]: the inhibition at 110 µM came to 1% under setting [1] and 23% under setting [2].

In the case of `Oc1cc(O)c2c(c1)O[C@@H](c1cc(O)c(O)c(O)c1)[C@H](O)C2` [(‐)‐Gallocatechin], the inhibition at 110 µM runs as follows: under setting [3], 43%; under setting [4], 5%.

For `C/C=C1\[C@H]2C=C(C)C[C@]1(N)c1ccc(=O)[nH]c1C2` [(‐)‐Huperzine A], the inhibition at 110 µM reads like this: under setting [1], 0%; under setting [2], 4%.

`O=C1C=C2C=C[C@@H]3C[C@@]2(O1)[C@H]1CCCCN31` [(‐)‐Securinine]: the inhibition at 110 µM by setting is: under setting [1], 0%; under setting [2], 12%.

Regarding `COc1c(-c2ccc3cc(NS(C)(=O)=O)ccc3c2)cc(-n2ccc(=O)[nH]c2=O)cc1C(C)(C)C` [ABT‐333], the inhibition at 110 µM under setting [1] is 40% and the inhibition at 110 µM under setting [2] is 0%.

As for `OB1OCc2cc(F)ccc21` [AN‐2690], the inhibition at 110 µM runs as follows: under setting [1], 0%; under setting [2], 12%.

For `Nc1nc(NC2CC2)c2ncn([C@H]3C=C[C@@H](CO)C3)c2n1` [Abacavir], the inhibition at 110 µM reads like this: under setting [1], 3%; under setting [2], 2%.

Take `CC1=CC(=O)CC(C)(C)[C@@]1(O)/C=C/C(C)=C\C(=O)O` [Abscisic acid]: the inhibition at 110 µM is, setting by setting: under setting [1], 0%; under setting [2], 11%.

For the molecule `COc1ccc(-c2cc(=O)c3c(O)cc(O)cc3o2)cc1` [Acacetin], the inhibition at 110 µM reads like this: under setting [1], 9%; under setting [2], 2%.

For `Cn1c(=O)c2c(ncn2CC(=O)O)n(C)c1=O` [Acefylline], the inhibition at 110 µM by setting is: under setting [1], 0%; under setting [2], 1%.

As to `CC(=O)OCC1=CO[C@@H](OC(=O)CC(C)C)[C@H]2C1=C[C@H](OC(=O)CC(C)(C)OC(C)=O)[C@]21CO1` [Acevaltrate], the inhibition at 110 µM is, setting by setting: under setting [3], 7%; under setting [4], 21%.

`CCN1C[C@]2(COC)[C@H](O)C[C@H](OC)[C@]34C1[C@H]([C@H](OC)[C@H]23)[C@]1(O)[C@H]2[C@@H](O)[C@](O)(C[C@H]24)[C@@H](OC)[C@@H]1O` [Aconine]: the inhibition at 110 µM reads like this: under setting [1], 10%; under setting [2], 0%.

Regarding `Nc1nc2c(ncn2COCCO)c(=O)[nH]1` [Acyclovir], the inhibition at 110 µM by setting is: under setting [1], 17%; under setting [2], 12%.

Consider `CC(C)(C)C(=O)OCOP(=O)(COCCn1cnc2c(N)ncnc21)OCOC(=O)C(C)(C)C` [Adefovir dipivoxil], for which the inhibition at 110 µM is, setting by setting: under setting [1], 28%; under setting [2], 14%.

With `Nc1ncnc2[nH]cnc12` [Adenine], the inhibition at 110 µM is, setting by setting: under setting [3], 0%; under setting [4], 3%.

As to `Nc1ncnc2c1ncn2[C@@H]1O[C@H](CO)[C@@H](O)[C@H]1O` [Adenosine], the inhibition at 110 µM runs as follows: under setting [1], 0%; under setting [2], 9%.

Turning to `O=C(OCC1=C[C@@H](O)[C@@H]2C=CO[C@@H](O[C@@H]3O[C@H](CO)[C@@H](O)[C@H](O)[C@H]3O)[C@H]12)c1ccc(O)cc1` [Agnuside], the inhibition at 110 µM by setting is: under setting [1], 2%; under setting [2], 15%.

`CCCSc1ccc2nc(NC(=O)OC)[nH]c2c1` [Albendazole]: the inhibition at 110 µM under setting [3] came to 17% and the inhibition at 110 µM under setting [4] came out at 6%.

As for `CC(C)C1=C[C@H]2[C@@H](CC[C@]2(C)O)[C@](C)(O)CC1` [Alismoxide], the inhibition at 110 µM under setting [1] is 2% and the inhibition at 110 µM under setting [2] is 0%.

Turning to `C[C@H](C[C@H](O)[C@@H](O)C(C)(C)O)C1=C2C[C@H](O)[C@H]3[C@@]4(C)CCC(=O)C(C)(C)[C@@H]4CC[C@]3(C)[C@@]2(C)CC1` [Alisol A], the inhibition at 110 µM under setting [1] is 3% and the inhibition at 110 µM under setting [2] is 2%.

Turning to `C[C@H](C[C@H](O)[C@H]1OC1(C)C)C1=C2C[C@H](O)[C@H]3[C@@]4(C)CCC(=O)C(C)(C)[C@@H]4CC[C@]3(C)[C@@]2(C)CC1` [Alisol B], the inhibition at 110 µM reads like this: under setting [3], 3%; under setting [4], 10%.

As to `NC(=O)NC1NC(=O)NC1=O` (stereo not drawn) [Allantoin], the inhibition at 110 µM was 0% under setting [1] and 13% under setting [2].

Regarding `COc1ccc2c(c1OC)CN(C)CCc1cc3c(cc1C(=O)C2)OCO3` [Allocryptopine], the inhibition at 110 µM was found to be 11% under setting [1] and 18% under setting [2].

In the case of `O=c1cc(-c2ccc(O)c(-c3c(O)cc(O)c4c(=O)cc(-c5ccc(O)cc5)oc34)c2)oc2cc(O)cc(O)c12` [Amentoflavone], the inhibition at 110 µM is, setting by setting: under setting [1], 0%; under setting [2], 0%.

Regarding `C[C@@H]1[C@H](O)[C@@H](C)/C=C/C=C/C=C/C=C/C=C/C=C/C=C/[C@H](O[C@@H]2O[C@H](C)[C@@H](O)[C@H](N)[C@@H]2O)C[C@@H]2O[C@](O)(C[C@@H](O)C[C@@H](O)[C@H](O)CC[C@@H](O)C[C@@H](O)CC(=O)O[C@H]1C)C[C@H](O)[C@H]2C(=O)O` [Amphotericin B], the inhibition at 110 µM by setting is: under setting [1], 2%; under setting [2], 29%.

As for `CC(C)CN(C[C@@H](O)[C@H](Cc1ccccc1)NC(=O)O[C@H]1CCOC1)S(=O)(=O)c1ccc(N)cc1` [Amprenavir], the inhibition at 110 µM under setting [1] amounted to 41% and the inhibition at 110 µM under setting [2] was 34%.
